Values belong to the compound of their own block, whether it stands above or below them.
Legend:
BRD9 = biological target: T1, BRD9 (Homo sapiens, UniProt Q9H8M2); assay: BRD9 HiBiT degradation assay in 293T.166 (HEK293T.166) cells; type: cell-based; set-up: endogenously expressing BRD9 with HiBiT fusion tag via CRISPR; host or cells: HEK293T.166 (293T.166, BRD9-HiBiT HEK293, LgBiT by lentivirus); conditions: for DC50: 2.0 hours, read-out: HiBiT-Degradation 293T.166 BRD9 2.0 hours (DC50)
T1 sequence (Q9H8M2 1-597): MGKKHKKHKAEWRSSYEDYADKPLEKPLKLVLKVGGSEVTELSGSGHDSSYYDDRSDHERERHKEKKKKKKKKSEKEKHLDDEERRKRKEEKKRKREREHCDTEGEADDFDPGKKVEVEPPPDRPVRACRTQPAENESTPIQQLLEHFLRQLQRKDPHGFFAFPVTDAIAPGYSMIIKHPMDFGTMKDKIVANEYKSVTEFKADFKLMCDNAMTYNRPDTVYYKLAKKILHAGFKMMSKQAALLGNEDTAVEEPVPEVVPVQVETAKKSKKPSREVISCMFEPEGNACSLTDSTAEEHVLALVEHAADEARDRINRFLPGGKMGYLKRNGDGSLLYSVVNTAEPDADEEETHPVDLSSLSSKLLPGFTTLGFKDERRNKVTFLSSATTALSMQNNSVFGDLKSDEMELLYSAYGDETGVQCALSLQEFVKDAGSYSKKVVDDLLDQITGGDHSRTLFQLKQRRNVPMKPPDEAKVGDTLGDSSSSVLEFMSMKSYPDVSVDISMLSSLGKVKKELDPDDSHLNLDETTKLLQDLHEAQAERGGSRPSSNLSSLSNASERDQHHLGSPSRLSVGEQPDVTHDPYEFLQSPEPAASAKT
Experimental: Selected compounds were tested in a BRD9 degradation assay using the HiBit Method.
Dulbecco's modified Eagle medium (DMEM) without phenol red and fetal bovine serum (FBS) were purchased from Gibco (Grand Island, NY, USA). Nano-Glo® HiBiT Lytic Assay System was purchased from Promega (Madison, WI, USA). 293T.166 (BRD9-HiBiT) cell line, endogenously expressing BRD9 with HiBiT fusion tag via CRISPR and ectopically expressing LgBiT tag, was purchased from Promega (Madison, WI, USA). 293T.167 (BRD7-HiBiT) cell line, endogenously expressing BRD7 with HiBiT fusion tag via CRISPR and ectopically expressing LgBiT tag, was purchased from Promega (Madison, WI, USA). 293T.92 (BRD4-HiBiT) cell line, endogenously expressing BRD4 with HiBiT fusion tag via CRISPR and ectopically expressing LgBiT tag, was generated in-house. Cell culture flasks and 384-well microplates were acquired from VWR (Radnor, PA, USA).
BRD9 degradation was determined based on quantification of luminescent signal using Nano-Glo® HiBiT Lytic Assay kit. Test compounds were added to the 384-well plate from a top concentration of 10 μM with 11 points, half log titration in duplicates. 293T.166 cells were added into 384-well plates at a cell density of 10,000 cells per well. The plates were kept at 37° C. with 5% CO2 for 2 hours. BRD7 and BRD4 degradation was similarly determined with 293T.167 cells and 293T.92 cells, respectively. The cells treated in the absence of the test compound were the negative control and the cells without Nano-Glo® HiBiT Lytic reagent were the positive control. After 2-hour incubation, Nano-Glo® HiBiT Lytic Assay reagents were added to the cells. Luminescence was acquired on EnVision® Multilabel Reader (Catalog No. 2104-0010, Perkin Elmer Inc., Dumfries, VA, USA).
This assay evaluates the degradation of BRD9 induced by treatment with Compound 1 or Compound 2 as measured by luminescence using Nano-Glo® HiBiT Lytic Assay System in HEK293 cells CRISPR-edited to endogenously express HiBiT tagged BRD9 and exogenously express LgBiT protein.
Nano-Glo® HiBiT Lytic Assay System was purchased from Promega (Catalog No. N3050, Madison, WI, USA). BRD9-HiBiT HEK293 cells were purchased from Promega (Catalog No. CS302348, Madison, WI, USA). The cells were maintained in Dulbecco's modified Eagle medium (DMEM) without phenol red (Catalog No. 12430112, ThermoFisher Scientific, Waltham, MA, USA) supplemented with 10% fetal bovine serum (FBS) (Catalog No. 16000-044, Gibco, Grand Island, NY, USA) at 37° C. in an atmosphere of 5% CO2 in air. The HiBiT polypeptide tag was introduced into the C-terminus of the endogenous BRD9 locus by CRISPR-Cas9 and the LgBiT protein was introduced via Lentiviral infection to produce the modified HEK293T.166 cell line. The HiBiT polypeptide and LgBiT protein allow reconstitution of NanoBiT enzyme in the cells. The Nano-Glo® HiBiT Lytic Substrate was then added and activated by the NanoBiT enzyme following cell lysis to produce a luminescent signal that is directly proportional to the amount of HiBiT-tagged BRD9.
The HEK293T.166 cells were routinely sub-cultured to maintain cell density between 30-80% confluence, not to exceed 20 passages. Cells were washed with PBS pH 7.4 (Catalog No. 10010049, ThermoFisher Scientific, Waltham, MA, USA), trypsinized for 5 minutes at 37° C., and resuspended in fresh growth media without phenol red. An aliquot was diluted 2× with Trypan Blue solution 0.4% (Catalog No. 15250061, ThermoFisher Scientific, Waltham, MA, USA) and cell count determined. Cell concentration was adjusted with growth media without phenol red to 3.3×10^5 cells/mL.
Compound 1 or Compound 2 was prepared by dissolving neat compounds in DMSO (Catalog No. D8418, Sigma-Aldrich, Inc., St. Louis, MO, USA) to generate 10 mM stock solution and stored at −20° C. […]

[1] = Solubility study in aqueous media at 37° C.; conditions: for Solubility: target 10 mg/5 mL, LOQ: 50 μg/mL
[2] = Hygroscopicity by DVS at 25° C.; type: physicochemical
Experimental: Hygroscopicity of Form A and Form N was investigated by DVS at 25° C. […] Form A converted to Form K after the DVS test. Form K is a metastable hydrate. It reverted back to Form A after exposure to ambient condition.
Hygroscopicity of the free base Pattern A* and the urea cocrystal Form P were evaluated by DVS at 25° C.

[3] = pH 4.5, 50 mM acetate buffer, 2 h
[4] = pH 4.5, 50 mM acetate buffer, 24 h

SMILES: COc1cc(-c2cn(C)c(=O)c(C)c2C)cc(OC)c1CN1CC[C@H](N2CCN(c3ccc(N[C@H]4CCC(=O)NC4=O)cc3F)CC2)C(F)(F)C1.NC(N)=O [Urea cocrystal Pattern P]
- pH ([1]; FaSSIF-v1, pH 6.5, 2 h): pH: 6.5
- Solubility ([1]; FaSSIF-v1, pH 6.5, 2 h): <LOQ
- pH ([1]; FaSSIF-v1, pH 6.5, 24 h): pH: 6.5
- Solubility ([1]; FaSSIF-v1, pH 6.5, 24 h): <LOQ
- pH ([1]; FeSSIF-v1, pH 5.0, 2 h): pH: 5.0
- Solubility ([1]; FeSSIF-v1, pH 5.0, 2 h): 280 µg/mL
- pH ([1]; FeSSIF-v1, pH 5.0, 24 h): pH: 4.9
- Solubility ([1]; FeSSIF-v1, pH 5.0, 24 h): 340 µg/mL
- pH ([1]; SGF, pH 1.8, 2 h): pH: 2.4
- Solubility ([1]; SGF, pH 1.8, 2 h): >2000 µg/mL
- pH ([1]; SGF, pH 1.8, 24 h): pH: 2.4
- Solubility ([1]; SGF, pH 1.8, 24 h): >2000 µg/mL
- pH ([1]; pH 1.0 (0.1N HCl), 2 h): pH: 1.0
- Solubility ([1]; pH 1.0 (0.1N HCl), 2 h): >2000 µg/mL
- pH ([1]; pH 1.0 (0.1N HCl), 24 h): pH: 1.0
- Solubility ([1]; pH 1.0 (0.1N HCl), 24 h): >2000 µg/mL
- pH [1, 3]: pH: 4.6
- Solubility [1, 3]: 240 µg/mL
- pH [1, 4]: pH: 4.5
- Solubility [1, 4]: 140 µg/mL
- XRPD after DVS test [2]: No form change
- water uptake from 40% RH to 90% RH ([2]; DVS): <90% RH, 1.6% water
- water uptake from 40% RH to 95% RH ([2]; DVS): 3.1% water uptake from
- 1st desorp. (%) ([2]; DVS, 0% RH): 0.0%
- 2nd sorp. (%) ([2]; DVS, 0% RH): 0.0%
- 1st desorp. (%) ([2]; DVS, 10% RH): 2.2%
- 2nd sorp. (%) ([2]; DVS, 10% RH): 1.2%
- 1st desorp. (%) ([2]; DVS, 20% RH): 3.1%
- 2nd sorp. (%) ([2]; DVS, 20% RH): 2.8%
- 1st desorp. (%) ([2]; DVS, 30% RH): 3.7%
- 2nd sorp. (%) ([2]; DVS, 30% RH): 3.3%
- 1st desorp. (%) ([2]; DVS, 40% RH): 4.2%
- 1st sorp. (%) ([2]; DVS, 40% RH): 4.0%
- 2nd desorp. (%) ([2]; DVS, 40% RH): 4.2%
- 2nd sorp. (%) ([2]; DVS, 40% RH): 3.7%
- 1st desorp. (%) ([2]; DVS, 50% RH): 4.5%
- 1st sorp. (%) ([2]; DVS, 50% RH): 4.2%
- 2nd desorp. (%) ([2]; DVS, 50% RH): 4.5%
- 2nd sorp. (%) ([2]; DVS, 50% RH): 4.1%
- 1st desorp. (%) ([2]; DVS, 60% RH): 4.7%
- 1st sorp. (%) ([2]; DVS, 60% RH): 4.4%
- 2nd desorp. (%) ([2]; DVS, 60% RH): 4.7%
- 2nd sorp. (%) ([2]; DVS, 60% RH): 4.4%
- 1st desorp. (%) ([2]; DVS, 70% RH): 5.0%
- 1st sorp. (%) ([2]; DVS, 70% RH): 4.7%
- 2nd desorp. (%) ([2]; DVS, 70% RH): 5.0%
- 2nd sorp. (%) ([2]; DVS, 70% RH): 4.8%
- 1st desorp. (%) ([2]; DVS, 80% RH): 5.2%
- 1st sorp. (%) ([2]; DVS, 80% RH): 5.1%
- 2nd desorp. (%) ([2]; DVS, 80% RH): 5.3%
- 2nd sorp. (%) ([2]; DVS, 80% RH): 5.1%
- 1st desorp. (%) ([2]; DVS, 90% RH): 5.8%
- 1st sorp. (%) ([2]; DVS, 90% RH): 5.6%
- 2nd desorp. (%) ([2]; DVS, 90% RH): 5.8%
- 2nd sorp. (%) ([2]; DVS, 90% RH): 5.6%
- 1st desorp. (%) ([2]; DVS, 95% RH): 7.1%
- 1st sorp. (%) ([2]; DVS, 95% RH): 7.1%
- 2nd desorp. (%) ([2]; DVS, 95% RH): 7.3%
- 2nd sorp. (%) ([2]; DVS, 95% RH): 7.3%

SMILES: COc1cc(-c2cn(C)c(=O)c(C)c2C)cc(OC)c1CN1CC[C@H](N2CCN(c3ccc(N[C@@H]4CCC(=O)NC4=O)cc3F)CC2)C(F)(F)C1 [Compound 2]
- % BRD9 Remaining Relative to Vehicle Control at 2 hr, Mean (BRD9; 0.010 nM): 103.0%
- % BRD9 Remaining Relative to Vehicle Control at 2 hr, Mean (BRD9; 0.032 nM): 95.9%
- % BRD9 Remaining Relative to Vehicle Control at 2 hr, Mean (BRD9; 0.100 nM): 105.0%
- % BRD9 Remaining Relative to Vehicle Control at 2 hr, Mean (BRD9; 0.315 nM): 103.3%
- % BRD9 Remaining Relative to Vehicle Control at 2 hr, Mean (BRD9; 0.997 nM): 105.4%
- % BRD9 Remaining Relative to Vehicle Control at 2 hr, Mean (BRD9; 3.15 nM): 100.2%
- % BRD9 Remaining Relative to Vehicle Control at 2 hr, Mean (BRD9; 10.0 nM): 87.1%
- % BRD9 Remaining Relative to Vehicle Control at 2 hr, Mean (BRD9; 31.7 nM): 75.4%
- % BRD9 Remaining Relative to Vehicle Control at 2 hr, Mean (BRD9; 100 nM): 49.0%
- % BRD9 Remaining Relative to Vehicle Control at 2 hr, Mean (BRD9; 316 nM): 33.1%
- % BRD9 Remaining Relative to Vehicle Control at 2 hr, Mean (BRD9; 999 nM): 39.0%
- DC50 (BRD9; 293T.166 cells): < 100 nM
- Emax (BRD9; BRD9-HiBiT, 293T.166 cells, 2 hours, read-out: Mean Emax (%) ± SD): 33.1 ± 9.92%
- Dmax (BRD9; HEK293T.166 cells, 2-hour treatment, read-out: maximal degradation of BRD9): ~70%

Further lines, results first:

- DC50 (BRD9; 293T.166 cells): < 100 nM
SMILES: COc1cc(-c2cn(C)c(=O)c(C)c2C)cc(OC)c1CN1CCC(N2CCN(c3ccc(NC4CCC(=O)NC4=O)cc3F)CC2)C(F)(F)C1 (stereo not shown) [Compound 5]

- DC50 (BRD9; 293T.166 cells): < 100 nM
SMILES: COc1cc(-c2cn(C)c(=O)c(C)c2C)cc(OC)c1CN1CC[C@@H](N2CCN(c3ccc(N[C@@H]4CCC(=O)NC4=O)cc3F)CC2)C(F)(F)C1 [Compound 4]

- DC50 (BRD9; 293T.166 cells): < 100 nM
SMILES: COc1cc(-c2cn(C)c(=O)c(C)c2C)cc(OC)c1CN1CC[C@@H](N2CCN(c3ccc(N[C@H]4CCC(=O)NC4=O)cc3F)CC2)C(F)(F)C1 [Compound 3]

Reference: patent US20240245677A1, “SELECTED COMPOUNDS FOR TARGETED DEGRADATION OF BRD9” (C4 THERAPEUTICS, INC., priority 2021, published 2024)
